Measurements published in patent US20220354835A1, “COMPOUNDS FOR DEGRADING TAU PROTEIN AGGREGATES AND USES THEREOF” (Aprinoia Therapeutics Limited, priority 2019, published 2022).

Molecular target: T1, Tau aggregates in P301L-Tau-FL-GFP HEK293 cells (Homo sapiens, UniProt P10636, P618L)
T1 construct: express full-length human tau T40 (2N4R) carrying the P301L mutation with a GFP tag; expressed in transfected cells
Experiment: Tau degradation assay (APNmAb005 ELISA-based Tau aggregation assay)
Assay type: cell-based
Details: 1 μM of compound, 24 hours, P301L-Tau-FL-GFP HEK293 cells seeded with rTg4510 brain lysate; read-out: Activity (reduction of tau aggregates)
Procedure: (A). Cell-based model of Tau inclusion formation: Six month old rTg4510 mouse brain lysates were used as the source of tau seeds, prepared as described in Example 26 above. P301L-Tau-FL-GFP HEK293 cells represent HEK293 cells express full-length human tau T40 (2N4R) carrying the P301L mutation with a GFP tag (P301L-Tau-FL-GFP). 1×10^6 of P301L-Tau-FL-GFP HEK293 cells were cultured on a 6-well plate in culture medium containing DMEM/F-12 (Gibco) supplemented with 10% fetal bovine serum (FBS) (Gibco), 1% Penicillin-Streptomycin (Gibco) and 0.5 mg/ml geneticin (Thermo Fisher Scientific) for 24 hours to reach 70-90% confluency, indicating the cells were ready for transfection. 50 μg of 6-month-old rTg4510 mouse brain lysate was diluted in 400 μL of serum free medium and mixed with 16 μL of lipofectamine 3000 reagent (Thermo Fisher Scientific) diluted in 400 μl of serum free medium. A solution mixture of rTg4510 brain lysate and lipofectamine 3000 was incubated at room temperature for 25 min. The culture media were removed, and then a solution mixture of rTg4510 lysate and lipofectamine 3000 was added to the cells for transfection. The solution mixture was incubated at room temperature for five hours, followed by medium change to 10% fetal bovine serum (FBS). After two-day incubation, Tau aggregates (Tau spots) were induced and images were acquired by ImageXpress Micro Confocal high-content imaging system (Molecular Devices) as described in Example 52 above. Analysis was performed by two customized modules in MetaXpress software (Molecular Devices) for aggregated tau analysis. Output included cell numbers, numbers of tau spots, average intensity of tau spots, and average size of tau spots.
(B). Compound treatment: 100 μL of 3×10^4 cells comprising Tau aggregates, prepared as described above in step (A), were plated on a 96-well plate coated with poly-D-lysine (BD Biosciences) and cultured for 24 hours. Compounds to be tested were dissolved in culture medium containing 0.1% DMSO. Each of test compounds in the concentration of 1, 0.2 and 0.04 μM was added to the cells comprising Tau aggregates and incubated at 37° C. for 24 hours. After that, culture medium was removed, cells were washed with PBS solution and then lysed using 30 μL of lysis buffer (PBS containing 0.3% Triton X-100 and 400 mM NaCl) for one hour at 4° C., and then cell lysate was diluted by 170 μl of PBS containing 400 mM NaCl. Cell lysate was filtrated by a […] filtration plate (Pall) and applied for Tau aggregation assay.
(C). Control cell lysate: control cell lysate was collected from non-seeded cells.
(D). ELISA-based Tau aggregation assay: APNmAb005 ELISA kit for Tau aggregation assay was designed and developed to detect abnormal tau aggregates in buffered solution or cell lysate by using anti-Tau APNmab005 as capture and detection antibody. This antibody is a highly specific antibody bound to human tau aggregates accumulated in mammalian cells. APNmAb005 is recited in PCT Patent Application No. PCT/M2020/057415, filed Aug. 5, 2020, which is incorporated herein by reference.
0.15 μg of APNmAb005 in 100 mM sodium carbonate buffer (pH 9.6) was coated on a high-binding polystyrene 96-well microplate (Greiner Bio-One) at 4° C. overnight. The microplate was washed with PBS followed by treatment with Intercept (PBS) blocking buffer (LI-COR) at room temperature for 2 hours. After that, the microplate was washed with PBS, and then the cell lysate with compound treatment, prepared as described above in step (C), was added into each well of the microplate and incubated at room temperature for 2 hours. The microplate was washed with PBS and then incubated with HRP-conjugated secondary antibody APNmAb005 at room temperature for 3 hours. HRP-conjugated secondary antibody APNmAb005 was prepared using HRP conjugation kit (Abcam,ab102890). The microplate was then washed with PBS and incubated with 100 μL of horseradish peroxidase (HRP) substrate at room temperature. […]

T1 sequence (P10636 1-441 isoform P10636-8 P301L): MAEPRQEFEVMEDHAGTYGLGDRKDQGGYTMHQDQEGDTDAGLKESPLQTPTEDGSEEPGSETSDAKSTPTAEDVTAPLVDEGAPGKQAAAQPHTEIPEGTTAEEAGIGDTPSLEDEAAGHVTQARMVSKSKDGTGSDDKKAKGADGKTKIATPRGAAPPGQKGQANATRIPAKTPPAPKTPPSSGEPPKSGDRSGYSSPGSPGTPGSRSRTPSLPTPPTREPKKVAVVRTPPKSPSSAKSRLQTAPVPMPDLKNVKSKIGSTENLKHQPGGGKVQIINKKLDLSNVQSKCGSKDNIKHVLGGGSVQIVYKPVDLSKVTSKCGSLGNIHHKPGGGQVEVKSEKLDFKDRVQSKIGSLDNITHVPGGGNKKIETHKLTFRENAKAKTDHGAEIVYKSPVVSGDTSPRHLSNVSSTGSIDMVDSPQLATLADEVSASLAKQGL

`CN(C)c1ccc(-c2ccc(-c3nc4ccc(NCCOCCOc5ccc6c(c5)CN(C5CCC(=O)NC5=O)C6=O)cc4s3)cc2)cn1` (stereo not shown) [Compound 160313, 3-[6-[2-[2-[[2-[4-[6-(dimethylamino)pyridin-3-yl]phenyl]-1,3-benzothiazol-6-yl]amino]ethoxy]ethoxy]-3-oxo-1H-isoindol-2-yl]piperidine-2,6-dione] showed an inhibition at 1 µM of under 10%.
